Experimental data published in ChEMBL document CHEMBL1201862, “PubChem BioAssay data set” (2004).
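Cultured in 96-well plates, cells were exposed to test compound for 48 hours across five concentrations. GI50: concentration for 50% inhibition of growth.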 Active and inactive are the calls of the source. No stated cut-off is given here; in the data, active = GI50 up to about 1.1 µM and inactive = higher. Non-standard residues stand in square brackets, D forms with d. Residues, ends and D or L forms follow the SMILES beside them. ξ: configuration not given here. Pen = CC(C)(S)[C@H](N)C(=O)O; ξL = CC(C)CC(N)C(=O)O

Legend:
Assay in all cases: growth of human tumour cells (NCI), 48 h
NCI-H226 = tested on: NCI-H226
HCT-116 = tested on: HCT-116
COLO 205 = tested on: COLO 205
OVCAR-8 = tested on: OVCAR-8
K562 = tested on: K562
NCI-H460 = tested on: NCI-H460
SF-295 = tested on: SF-295
M14 = tested on: M14
HL-60 = tested on: HL-60
SW-620 = tested on: SW-620
SK-MEL-28 = tested on: SK-MEL-28
SK-OV-3 = tested on: SK-OV-3
SF-268 = tested on: SF-268
A498 = tested on: A498
OVCAR-5 = tested on: OVCAR-5
U-251 = tested on: U-251
HCT-15 = tested on: HCT-15
UACC-62 = tested on: UACC-62
EKVX = tested on: EKVX
OVCAR-3 = tested on: OVCAR-3

Compound	GI50 (NCI-H226)	GI50 (HCT-116)	GI50 (COLO 205)	GI50 (OVCAR-8)	GI50 (K562)	GI50 (NCI-H460)	GI50 (SF-295)	GI50 (M14)	GI50 (HL-60)	GI50 (SW-620)	GI50 (SK-MEL-28)	GI50 (SK-OV-3)	GI50 (SF-268)	GI50 (A498)	GI50 (OVCAR-5)	GI50 (U-251)	GI50 (HCT-15)	GI50 (UACC-62)	GI50 (EKVX)	GI50 (OVCAR-3)
CCOC(=O)C(=O)NC12CC3CC(CC(C3)C1)C2	> 100 µM (inactive)	> 100 µM (inactive)	> 100 µM (inactive)	> 100 µM (inactive)	> 100 µM (inactive)	> 100 µM (inactive)	> 100 µM (inactive)	> 100 µM (inactive)	> 100 µM (inactive)	> 100 µM (inactive)	> 100 µM (inactive)	> 100 µM (inactive)	> 100 µM (inactive)	> 100 µM (inactive)	> 100 µM (inactive)	> 100 µM (inactive)	> 100 µM	> 100 µM (inactive)	> 100 µM (inactive)	
c1ccc(OCc2nnc(CCCCCCCCc3nnc(COc4ccccc4)o3)o2)cc1	> 100 µM (inactive)	63.8 µM (inactive)	> 100 µM (inactive)	28.9 µM (inactive)	> 100 µM (inactive)	> 100 µM (inactive)	> 100 µM (inactive)	> 100 µM (inactive)	> 100 µM (inactive)	> 100 µM (inactive)	> 100 µM (inactive)	32.8 µM (inactive)	99.5 µM (inactive)	> 100 µM (inactive)	> 100 µM (inactive)	32.2 µM (inactive)	> 100 µM		> 100 µM (inactive)	27.8 µM (inactive)
CN(C)CCNC(=O)c1cc(Cl)cc2cc3ccccc3nc12	0.843 µM (active)	0.445 µM (active)	0.433 µM (active)	0.542 µM (active)	1.01 µM (active)	0.311 µM (active)	0.492 µM (active)		0.578 µM (active)	0.519 µM (active)	1.76 µM (inactive)	2.21 µM (inactive)	1.22 µM (inactive)	0.179 µM (active)	1.15 µM (inactive)	1.64 µM (inactive)	0.755 µM	0.652 µM (active)	1.43 µM (inactive)	4.71 µM (inactive)
C=C1C[C@@H](O)C[C@@]2(C)C[C@@H]3OC(=O)C(=C)[C@@H]3C[C@H]12	14 µM (inactive)	3.43 µM (inactive)	1.61 µM (inactive)	16 µM (inactive)	4.19 µM (inactive)	16.5 µM (inactive)	15.3 µM (inactive)		1.89 µM (inactive)	5.42 µM (inactive)	4.82 µM (inactive)	20.7 µM (inactive)	5.46 µM (inactive)	12.4 µM (inactive)	7.36 µM (inactive)	12.2 µM (inactive)	4.42 µM	5.96 µM (inactive)		11.2 µM (inactive)
COC(=O)C1C(O)C(C)C(O)C(C)(O)/C=C\C=C(C)C(=O)Nc2c(C)c(OC(C)=O)c3c(c2O)C(=O)C(C)=C2OCOC(=C23)C(C)=CC(C)(O)C(O)C(C)C1OC(C)=O (configuration not stated)	63.5 µM (inactive)	21.4 µM (inactive)	18.6 µM (inactive)	49.3 µM (inactive)	37.4 µM (inactive)	26.1 µM (inactive)	80.4 µM (inactive)		28.4 µM (inactive)	38.3 µM (inactive)	40.1 µM (inactive)	> 95.1 µM (inactive)	46.6 µM (inactive)	49.8 µM (inactive)	> 100 µM (inactive)	57.4 µM (inactive)	35.5 µM	21.1 µM (inactive)	34.1 µM (inactive)	27.7 µM (inactive)
COC(=O)C(Cc1ccc(N(C)C)cc1)(NC(=O)c1ccccc1)P(=O)(OC)OC (configuration not stated)	> 100 µM (inactive)	> 100 µM (inactive)	> 100 µM (inactive)	> 100 µM (inactive)	> 100 µM (inactive)	> 100 µM (inactive)	> 100 µM (inactive)	> 100 µM (inactive)	> 100 µM (inactive)	> 100 µM (inactive)	> 100 µM (inactive)	> 100 µM (inactive)	> 100 µM (inactive)	> 100 µM (inactive)	> 100 µM (inactive)	> 100 µM (inactive)	> 100 µM	> 100 µM (inactive)	> 100 µM (inactive)	
CCOC(=O)CNC(=O)NC12CC3CC(CC(C3)C1)C2	203 µM (inactive)	156 µM (inactive)	137 µM (inactive)	490 µM (inactive)	226 µM (inactive)	136 µM (inactive)	322 µM (inactive)		177 µM (inactive)	247 µM (inactive)	179 µM (inactive)	> 418 µM (inactive)	284 µM (inactive)	147 µM (inactive)	432 µM (inactive)	269 µM (inactive)	229 µM	125 µM (inactive)	191 µM (inactive)	153 µM (inactive)
COc1ccc(/C(Cl)=C(\C=O)c2ccc(F)cc2)cc1	11.7 µM (inactive)	5.08 µM (inactive)	16.6 µM (inactive)	10.8 µM (inactive)	4.78 µM (inactive)	4.46 µM (inactive)	8.43 µM (inactive)	12.9 µM (inactive)	2.72 µM (inactive)	6.81 µM (inactive)	16.7 µM (inactive)	40 µM (inactive)	8.36 µM (inactive)	17.4 µM (inactive)		6.58 µM (inactive)	4.24 µM	9.08 µM (inactive)	16.9 µM (inactive)	19.1 µM (inactive)
CCCCCCSc1nc(N)nc2nc[nH]c12	32.1 µM (inactive)	35.2 µM (inactive)	38.9 µM (inactive)	42.5 µM (inactive)	32 µM (inactive)	39.3 µM (inactive)	59.6 µM (inactive)		19.6 µM (inactive)	56.2 µM (inactive)	59.3 µM (inactive)	28.8 µM (inactive)	46.7 µM (inactive)	26.9 µM (inactive)	41.2 µM (inactive)	35.4 µM (inactive)	35.4 µM	37 µM (inactive)	60.1 µM (inactive)	40.2 µM (inactive)
c1ccc2c(c1)SCCc1cn[nH]c1-2	24.7 µM (inactive)	> 100 µM (inactive)	> 100 µM (inactive)	> 100 µM (inactive)	> 100 µM (inactive)	> 100 µM (inactive)	> 100 µM (inactive)		> 100 µM (inactive)	> 100 µM (inactive)	> 100 µM (inactive)	> 100 µM (inactive)	> 100 µM (inactive)	> 100 µM (inactive)	> 100 µM (inactive)	> 100 µM (inactive)	> 100 µM	> 100 µM (inactive)	> 100 µM (inactive)	> 100 µM (inactive)
CC(=O)OCC1OC(Nc2ncc(-c3ccc(C)cc3)s2)C(OC(C)=O)C(OC(C)=O)C1OC(C)=O (configuration not stated)	25.2 µM (inactive)	26.6 µM (inactive)	40.5 µM (inactive)	39.7 µM (inactive)	34.2 µM (inactive)	31.5 µM (inactive)	43.2 µM (inactive)		21 µM (inactive)	74.5 µM (inactive)	39.1 µM (inactive)	68.4 µM (inactive)	45.5 µM (inactive)	48.2 µM (inactive)	38.1 µM (inactive)	56.8 µM (inactive)	37.5 µM	27 µM (inactive)	54 µM (inactive)	31.6 µM (inactive)
CN(C)CCOc1cc2c(c3ccccc13)-c1ccccc1C2=O	1.95 µM (inactive)	1.03 µM (active)	1.92 µM (inactive)	0.895 µM (active)	1.74 µM (inactive)	0.675 µM (active)	1.71 µM (inactive)		1.24 µM (inactive)	1.39 µM (inactive)	1.8 µM (inactive)	7.53 µM (inactive)	1.45 µM (inactive)	6.68 µM (inactive)	2.47 µM (inactive)	2.16 µM (inactive)	1.18 µM	1.8 µM (inactive)	4.91 µM (inactive)	1.9 µM (inactive)
N=C(N)SCCC(=O)CCSC(=N)N	> 100 µM (inactive)	> 100 µM (inactive)	> 100 µM (inactive)	> 100 µM (inactive)	99.5 µM (inactive)	> 100 µM (inactive)	> 100 µM (inactive)	> 100 µM (inactive)	> 100 µM (inactive)	> 100 µM (inactive)	> 100 µM (inactive)	> 100 µM (inactive)	> 100 µM (inactive)	5.5 µM (inactive)		> 100 µM (inactive)	> 100 µM			> 100 µM (inactive)
O=C(O)C(O)Cc1ccccn1 (configuration not stated)	> 100 µM (inactive)		> 100 µM (inactive)	> 100 µM (inactive)	> 100 µM (inactive)	> 100 µM (inactive)	> 100 µM (inactive)	> 100 µM (inactive)	> 100 µM (inactive)	> 100 µM (inactive)	> 100 µM (inactive)	> 100 µM (inactive)	> 100 µM (inactive)	> 100 µM (inactive)	> 100 µM (inactive)	> 100 µM (inactive)	> 100 µM	> 100 µM (inactive)	> 100 µM (inactive)	> 100 µM (inactive)
CSCC[C@H](NC(=O)C(CC(C)C)NC(=O)[C@H](Cc1c[nH]cn1)NC(=O)CNC(=O)[C@@H](NC(=O)[C@@H](C)NC(=O)[C@H](Cc1c[nH]c2ccccc12)NC(=O)[C@H](CCC(N)=O)NC(=O)[C@@H](N)CC(N)=O)C(C)(C)SC)C(N)=O (some centres not stated) (H-NQW[dA][Pen](Me)GH[ξL]M-NH2)	> 100 µM (inactive)	> 100 µM (inactive)	> 100 µM (inactive)	> 100 µM (inactive)	> 100 µM (inactive)	> 100 µM (inactive)	> 100 µM (inactive)		> 100 µM (inactive)	> 100 µM (inactive)	> 100 µM (inactive)	> 100 µM (inactive)	> 100 µM (inactive)	> 100 µM (inactive)	> 100 µM (inactive)	> 100 µM (inactive)	> 100 µM	> 100 µM (inactive)	> 100 µM (inactive)	> 100 µM (inactive)
